# According to PubChem BioAssay (NCI):
#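 Here, GI50 denotes the concentration required for 50% inhibition of growth. TGI: concentration producing complete growth inhibition.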
# Columns and labels:
# Assay in all cases: NCI tumour cell line growth inhibition, 384-well format
# [1] = tested on: 786-0 renal
# [2] = tested on: A498 renal
# [3] = tested on: A549 NSCLC
# [4] = tested on: ACHN renal
# [5] = tested on: BT-549 breast
# [6] = tested on: CAKI-1 renal
# [7] = tested on: CCRF-CEM leukemia
# [8] = tested on: COLO 205 colon
# [9] = tested on: DU-145 prostate
# [10] = tested on: EKVX NSCLC
# [11] = tested on: HCC-2998 colon
# [12] = tested on: HCT-116 colon
# [13] = tested on: HCT-15 colon
# [14] = tested on: HL-60(TB) leukemia
# [15] = tested on: HOP-62 NSCLC
# [16] = tested on: HOP-92 NSCLC
# [17] = tested on: HS 578T breast
# [18] = tested on: HT29 colon
# [19] = tested on: IGROV1 ovarian
# [20] = tested on: K-562 leukemia
# [21] = tested on: KM12 colon
# [22] = tested on: LOX IMVI melanoma
# [23] = tested on: M14 melanoma
# [24] = tested on: MALME-3M melanoma
# [25] = tested on: MCF7 breast
# [26] = tested on: MDA-MB-231 breast
# [27] = tested on: MDA-MB-435 melanoma
# [28] = tested on: MDA-MB-468 breast
# [29] = tested on: MOLT-4 leukemia
# [30] = tested on: NCI-H226 lung
# [31] = tested on: NCI-H23 lung
# [32] = tested on: NCI-H322M lung
# [33] = tested on: NCI-H460 NSCLC
# [34] = tested on: NCI-H522 lung
# [35] = tested on: NCI/ADR-RES ovarian
# [36] = tested on: OVCAR-3 ovarian
# [37] = tested on: OVCAR-4 ovarian
# [38] = tested on: OVCAR-5 ovarian
# [39] = tested on: PC-3 prostate
# [40] = tested on: RPMI-8226 leukemia
# [41] = tested on: RXF 393 renal
# [42] = tested on: SF-268 CNS
# [43] = tested on: SF-295 CNS
# [44] = tested on: SF-539 CNS
# [45] = tested on: SK-MEL-2 melanoma
# [46] = tested on: SK-MEL-28 melanoma
# [47] = tested on: SK-MEL-5 melanoma
# [48] = tested on: SK-OV-3 ovarian
# [49] = tested on: SN12C renal
# [50] = tested on: SNB-19 CNS
# [51] = tested on: SNB-75 CNS
# [52] = tested on: SR leukemia
# [53] = tested on: SW-620 colon
# [54] = tested on: T-47D breast
# [55] = tested on: TK-10 renal
# [56] = tested on: U251 glioblastoma
# [57] = tested on: UACC-257 melanoma
# [58] = tested on: UACC-62 melanoma
# [59] = tested on: UO-31 renal
smiles,measurement,setting,value
CN1CC[C@]2(c3cccc(O)c3)CC(=O)/C(=C/c3ccccc3)[C@H]1C2,GI50,[1],13.6 µM
same,TGI,[1],26.7 µM
same,GI50,[2],16.5 µM
same,TGI,[2],30.3 µM
same,GI50,[3],4.95 µM
same,TGI,[3],16.5 µM
same,GI50,[4],12.8 µM
same,TGI,[4],25.7 µM
same,GI50,[5],5.7 µM
same,TGI,[5],17.7 µM
same,GI50,[6],8.77 µM
same,TGI,[6],21.1 µM
same,GI50,[7],11.8 µM
same,TGI,[7],24.3 µM
same,GI50,[8],15.4 µM
same,TGI,[8],28.9 µM
same,GI50,[9],14.2 µM
same,TGI,[9],28.1 µM
same,GI50,[10],6.2 µM
same,TGI,[10],20.3 µM
same,GI50,[11],1.77 µM
same,TGI,[11],14.7 µM
same,GI50,[12],8.49 µM
same,TGI,[12],20.9 µM
same,GI50,[13],3.21 µM
same,TGI,[13],13.1 µM
same,GI50,[14],2.06 µM
same,TGI,[14],4.13 µM
same,GI50,[15],17 µM
same,TGI,[15],31.3 µM
same,GI50,[16],11.6 µM
same,TGI,[16],24 µM
same,GI50,[17],3.7 µM
same,TGI,[17],14.5 µM
same,GI50,[18],13.4 µM
same,TGI,[18],26.8 µM
same,GI50,[19],14.5 µM
same,TGI,[19],28 µM
same,GI50,[20],4.3 µM
same,TGI,[20],18 µM
same,GI50,[21],4.77 µM
same,TGI,[21],16.4 µM
same,GI50,[22],12 µM
same,TGI,[22],24.5 µM
same,GI50,[23],12.7 µM
same,TGI,[23],25.5 µM
same,GI50,[24],6.65 µM
same,TGI,[24],18.9 µM
same,GI50,[25],11.5 µM
same,TGI,[25],23.9 µM
same,GI50,[26],9.42 µM
same,TGI,[26],22.1 µM
same,GI50,[27],4.41 µM
same,TGI,[27],16.2 µM
same,GI50,[28],13.4 µM
same,TGI,[28],26.4 µM
same,GI50,[29],6.77 µM
same,TGI,[29],19.8 µM
same,GI50,[30],18.1 µM
same,TGI,[30],32.1 µM
same,GI50,[31],12 µM
same,TGI,[31],26.4 µM
same,GI50,[32],5.86 µM
same,TGI,[32],18.6 µM
same,GI50,[33],4.05 µM
same,TGI,[33],15.2 µM
same,GI50,[34],0.414 µM
same,TGI,[34],2.38 µM
same,GI50,[35],11.1 µM
same,TGI,[35],27.8 µM
same,GI50,[36],4.8 µM
same,TGI,[36],15.7 µM
same,GI50,[37],14.8 µM
same,TGI,[37],28.2 µM
same,GI50,[38],17.6 µM
same,TGI,[38],31.8 µM
same,GI50,[39],10 µM
same,TGI,[39],21.9 µM
same,GI50,[40],1.86 µM
same,TGI,[40],3.77 µM
same,GI50,[41],3.86 µM
same,TGI,[41],14.5 µM
same,GI50,[42],11.9 µM
same,TGI,[42],24.3 µM
same,GI50,[43],16.2 µM
same,TGI,[43],30.1 µM
same,GI50,[44],6.7 µM
same,TGI,[44],19.6 µM
same,GI50,[45],21.1 µM
same,TGI,[45],35.6 µM
same,GI50,[46],10.7 µM
same,TGI,[46],22.8 µM
same,GI50,[47],4.91 µM
same,TGI,[47],15.7 µM
same,GI50,[48],5.01 µM
same,TGI,[48],16.6 µM
same,GI50,[49],13.6 µM
same,TGI,[49],26.9 µM
same,GI50,[50],15 µM
same,TGI,[50],29 µM
same,GI50,[51],6.43 µM
same,TGI,[51],18.8 µM
same,GI50,[52],1.16 µM
same,TGI,[52],3.15 µM
same,GI50,[53],5.35 µM
same,TGI,[53],16.5 µM
same,GI50,[54],11.8 µM
same,TGI,[54],24.5 µM
same,GI50,[55],14.9 µM
same,TGI,[55],28.3 µM
same,GI50,[56],4.11 µM
same,TGI,[56],15.5 µM
same,GI50,[57],3.9 µM
same,TGI,[57],13.7 µM
same,GI50,[58],10.5 µM
same,TGI,[58],22.5 µM
Cc1cccc2nc3cccc(C(=O)NCCNCCNCCNC(=O)c4cccc5nc6cccc(C)c6nc45)c3nc12,GI50,[1],< 0.01 µM
same,TGI,[1],6.78 µM
same,GI50,[2],< 0.01 µM
same,TGI,[2],2.23 µM
same,GI50,[3],< 0.01 µM
same,TGI,[3],1.51 µM
same,GI50,[4],< 0.01 µM
same,TGI,[4],1.96 µM
same,GI50,[5],1.32 µM
same,TGI,[5],2.78 µM
same,GI50,[6],< 0.01 µM
same,TGI,[6],3.14 µM
same,GI50,[8],< 0.01 µM
same,TGI,[8],1.82 µM
same,GI50,[9],< 0.01 µM
same,TGI,[9],0.208 µM
same,GI50,[10],1.23 µM
same,TGI,[10],5.68 µM
same,GI50,[13],0.0212 µM
same,TGI,[13],> 100 µM
same,GI50,[14],< 0.01 µM
same,TGI,[14],0.154 µM
same,GI50,[15],< 0.01 µM
same,TGI,[15],1.39 µM
same,GI50,[17],0.0796 µM
same,TGI,[17],0.265 µM
same,GI50,[18],< 0.01 µM
same,TGI,[18],0.234 µM
same,GI50,[19],< 0.01 µM
same,TGI,[19],47.7 µM
same,GI50,[20],< 0.01 µM
same,TGI,[20],1.27 µM
same,GI50,[21],< 0.01 µM
same,TGI,[21],0.109 µM
same,GI50,[23],< 0.01 µM
same,TGI,[23],0.751 µM
same,GI50,[24],0.107 µM
same,TGI,[24],1.9 µM
same,GI50,[25],< 0.01 µM
same,TGI,[25],31.2 µM
same,GI50,[26],0.0115 µM
same,TGI,[26],0.628 µM
same,GI50,[27],0.133 µM
same,TGI,[27],1.9 µM
same,GI50,[28],< 0.01 µM
same,TGI,[28],1.21 µM
same,GI50,[29],< 0.01 µM
same,GI50,[30],0.124 µM
same,TGI,[30],1.19 µM
same,GI50,[31],0.179 µM
same,TGI,[31],1.76 µM
same,GI50,[32],0.139 µM
same,TGI,[32],1.14 µM
same,GI50,[33],< 0.01 µM
same,TGI,[33],0.229 µM
same,GI50,[34],0.101 µM
same,TGI,[34],0.221 µM
same,GI50,[36],< 0.01 µM
same,TGI,[36],2.62 µM
same,GI50,[37],0.188 µM
same,TGI,[37],2.02 µM
same,GI50,[38],0.0623 µM
same,TGI,[38],> 100 µM
same,GI50,[39],0.0171 µM
same,TGI,[39],2.28 µM
same,GI50,[41],< 0.01 µM
same,TGI,[41],0.231 µM
same,GI50,[42],0.0757 µM
same,TGI,[42],0.318 µM
same,GI50,[43],< 0.01 µM
same,TGI,[43],3.08 µM
same,GI50,[44],< 0.01 µM
same,TGI,[44],0.454 µM
same,GI50,[45],0.0713 µM
same,TGI,[45],0.209 µM
same,GI50,[46],0.51 µM
same,TGI,[46],2.14 µM
same,GI50,[47],< 0.01 µM
same,TGI,[47],1.21 µM
same,GI50,[48],0.0289 µM
same,TGI,[48],3.75 µM
same,GI50,[49],0.109 µM
same,TGI,[49],0.3 µM
same,GI50,[50],0.245 µM
same,TGI,[50],> 100 µM
same,GI50,[51],0.127 µM
same,TGI,[51],0.316 µM
same,GI50,[52],< 0.01 µM
same,GI50,[53],< 0.01 µM
same,TGI,[53],1.71 µM
same,GI50,[54],0.564 µM
same,TGI,[54],5.31 µM
same,GI50,[55],< 0.01 µM
same,TGI,[55],6.44 µM
same,GI50,[56],< 0.01 µM
same,TGI,[56],1.78 µM
same,GI50,[57],1.45 µM
same,TGI,[57],3.58 µM
same,GI50,[58],< 0.01 µM
same,TGI,[58],0.152 µM
same,GI50,[59],0.047 µM
same,TGI,[59],19.4 µM
